From patent US7569593B2, “Compounds and compositions as protein kinase inhibitors” (IRM LLC, priority 2003, dated 2009) come the findings set out here.

By IC50 is commonly meant the concentration needed to halve the response being measured. In general, inhibition refers to the percentage by which the read-out fell short of the control.

What all share (assay type): biochemical
One assay deals with b-Raf (Homo sapiens, UniProt P15056). As to the kind of experiment: b-Raf kinase inhibition assay (IκBα substrate, 384-well plate). Conditions: read-out: IC50 against b-Raf. Here is the method:
Compounds of the invention are tested for their ability to inhibit the activity of b-Raf. The assay is carried out in 384-well MaxiSorp plates (NUNC) with black walls and clear bottom. The substrate, IκBα is diluted in DPBS (1:750) and 15 μl is added to each well. The plates are incubated at 4° C. overnight and washed 3 times with TBST (25 mM Tris, pH 8.0, 150 mM NaCl and 0.05% Tween-20) using the EMBLA plate washer. Plates are blocked by Superblock (15 μl/well) for 3 hours at room temperature, washed 3 times with TBST and pat-dried. Assay buffer containing 20 μM ATP (10 μl) is added to each well followed by 100 nl or 500 nl of compound. B-Raf is diluted in the assay buffer (1 μl into 25 μl) and 10 μl of diluted b-Raf is added to each well (0.4 μg/well). The plates are incubated at room temperature for 2.5 hours. The kinase reaction is stopped by washing the plates 6 times with TBST. Phosph-IκBα (Ser32/36) antibody is diluted in Superblock (1:10,000) and 15 μl is added to each well. The plates are incubated at 4° C. overnight and washed 6 times with TBST. AP-conjugated goat-anti-mouse IgG is diluted in Superblock (1:1,500) and 15 μl is added to each well. Plates are incubated at room temperature for 1 hour and washed 6 times with TBST. […] Plates are read on Acquest or Analyst GT using a Fluorescence Intensity Nanxin BBT anion (505 dichroic mirror).

The target in the next assay is T1, Lck (Homo sapiens, UniProt P06239).
T1 construct: purchased Upstate (KinaseProfiler panel)
Kind of assay: Upstate KinaseProfiler radio-enzymatic filter binding assay. Conditions: at a concentration of 10 μM; 100% means complete inhibition; read-out: percentage inhibition of Lck. Here is the method: (§1) Compounds of the invention are assessed for their ability to inhibit individual members of a panel of kinases (a partial, non-limiting list of kinases includes: Abl, BCR-Abl, EGF-R, c-erbB2 kinase (HER-2), PDGF-R, lck, SAPK2α, p38, TGFβ, KDR, c-Kit, b-RAF, c-RAF, FLTI and FLT4). The compounds are tested in duplicates at a final concentration of 10 μM following this generic protocol. Note that the kinase buffer composition and the substrates vary for the different kinases included in the “Upstate KinaseProfiler™” panel. Kinase buffer (2.5 μL, 10x—containing MnCl2 when required), active kinase (0.001-0.01 Units; 2.5 μL), specific or Poly(Glu4-Tyr) peptide (5-500 μM or .01mg/ml) in kinase buffer and kinase buffer ([…]; 5 μL) are mixed in an eppendorf on ice. A Mg/ATP mix (10 μL; 67.5 (or 33.75) mM MgCl2, 450 (or 225) μM ATP and 1 μCi/μl [γ-^32P]-ATP (3000 Ci/mmol)) is added and the reaction is incubated at about 30° C. for about 10 minutes. The reaction mixture is spotted (20 μL) onto a 2 cm×2 cm P81 (phosphocellulose, for positively charged peptide substrates) or Whatman No. 1 (for Poly (Glu4-Tyr) peptide substrate) paper square. The assay squares are washed 4 times, for 5 minutes each, with 0.75% phosphoric acid and washed once with acetone for 5 minutes. The assay squares are transferred to a scintillation vial, 5 ml scintillation cocktail are added and ^32P incorporation (cpm) to the peptide substrate is quantified with a Beckman scintillation counter. Percentage inhibition is calculated for each reaction.

For another assay, the target named is T2, c-RAF (Homo sapiens, UniProt P04049).
T2 construct: purchased Upstate (KinaseProfiler panel)
Described as above. The note with it: at a concentration of 10 μM; 100% means complete inhibition; read-out: percentage inhibition of c-RAF. Here is the method: as §1

The target of another assay is T3, SAPK2α (Homo sapiens, UniProt Q16539).
T3 construct: purchased Upstate (KinaseProfiler panel)
Described as above. Conditions: at a concentration of 10 μM; 100% means complete inhibition; read-out: percentage inhibition of SAPK2α. Here is the method: as §1

The target of the next assay is T4, Abl (Homo sapiens, UniProt P00519).
T4 construct: purchased Upstate (KinaseProfiler panel)
Described as above. The note with it: at a concentration of 10 μM; 100% means complete inhibition; read-out: percentage inhibition of Abl. Here is the method: as §1

Chain of b-Raf (P15056 whole entry): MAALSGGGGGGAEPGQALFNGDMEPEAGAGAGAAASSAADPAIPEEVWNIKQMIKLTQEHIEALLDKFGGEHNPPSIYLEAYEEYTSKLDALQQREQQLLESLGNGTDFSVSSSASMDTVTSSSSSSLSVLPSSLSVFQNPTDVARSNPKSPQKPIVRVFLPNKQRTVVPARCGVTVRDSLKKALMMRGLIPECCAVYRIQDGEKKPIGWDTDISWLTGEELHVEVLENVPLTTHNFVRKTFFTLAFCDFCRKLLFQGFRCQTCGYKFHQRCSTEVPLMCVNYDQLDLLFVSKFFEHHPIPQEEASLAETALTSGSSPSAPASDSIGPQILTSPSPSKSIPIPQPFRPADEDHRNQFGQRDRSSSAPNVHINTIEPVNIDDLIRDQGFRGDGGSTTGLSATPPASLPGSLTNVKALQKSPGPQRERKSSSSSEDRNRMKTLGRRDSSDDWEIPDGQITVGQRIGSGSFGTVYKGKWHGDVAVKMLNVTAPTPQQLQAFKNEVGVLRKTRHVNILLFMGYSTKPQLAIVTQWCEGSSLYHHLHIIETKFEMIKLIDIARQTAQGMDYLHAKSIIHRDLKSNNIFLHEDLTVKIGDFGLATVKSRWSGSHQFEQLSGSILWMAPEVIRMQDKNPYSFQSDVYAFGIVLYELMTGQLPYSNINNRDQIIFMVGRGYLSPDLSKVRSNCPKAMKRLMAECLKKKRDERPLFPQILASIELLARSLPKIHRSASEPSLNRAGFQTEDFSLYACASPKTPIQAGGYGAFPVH
T2 sequence (P04049 whole entry): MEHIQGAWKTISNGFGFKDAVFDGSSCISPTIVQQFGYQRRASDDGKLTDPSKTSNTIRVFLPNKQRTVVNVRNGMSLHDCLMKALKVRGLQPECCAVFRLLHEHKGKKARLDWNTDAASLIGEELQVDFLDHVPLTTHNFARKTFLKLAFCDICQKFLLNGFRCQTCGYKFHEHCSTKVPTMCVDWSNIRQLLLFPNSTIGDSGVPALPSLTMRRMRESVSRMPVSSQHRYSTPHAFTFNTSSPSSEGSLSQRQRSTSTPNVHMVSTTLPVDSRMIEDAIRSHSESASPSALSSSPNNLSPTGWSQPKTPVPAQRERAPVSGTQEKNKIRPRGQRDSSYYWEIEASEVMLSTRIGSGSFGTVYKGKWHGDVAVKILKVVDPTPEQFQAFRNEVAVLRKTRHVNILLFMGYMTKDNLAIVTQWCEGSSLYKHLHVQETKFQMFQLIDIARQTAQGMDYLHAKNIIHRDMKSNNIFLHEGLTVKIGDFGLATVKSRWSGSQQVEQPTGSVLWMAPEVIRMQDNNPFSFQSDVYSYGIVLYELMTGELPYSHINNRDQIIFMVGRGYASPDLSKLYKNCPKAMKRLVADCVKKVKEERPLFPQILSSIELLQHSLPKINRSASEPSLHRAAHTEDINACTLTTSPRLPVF
T3 sequence (Q16539 whole entry): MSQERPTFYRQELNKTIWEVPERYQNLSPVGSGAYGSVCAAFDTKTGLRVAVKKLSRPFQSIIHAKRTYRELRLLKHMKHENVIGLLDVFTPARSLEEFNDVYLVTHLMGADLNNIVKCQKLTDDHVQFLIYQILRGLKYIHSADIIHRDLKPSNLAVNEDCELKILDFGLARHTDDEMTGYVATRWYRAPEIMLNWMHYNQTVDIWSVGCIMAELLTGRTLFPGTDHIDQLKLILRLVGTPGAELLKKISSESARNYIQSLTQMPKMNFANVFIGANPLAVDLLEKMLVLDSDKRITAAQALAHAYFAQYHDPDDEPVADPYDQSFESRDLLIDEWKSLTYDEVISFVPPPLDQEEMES
T4 sequence (P00519 whole entry, species assumed): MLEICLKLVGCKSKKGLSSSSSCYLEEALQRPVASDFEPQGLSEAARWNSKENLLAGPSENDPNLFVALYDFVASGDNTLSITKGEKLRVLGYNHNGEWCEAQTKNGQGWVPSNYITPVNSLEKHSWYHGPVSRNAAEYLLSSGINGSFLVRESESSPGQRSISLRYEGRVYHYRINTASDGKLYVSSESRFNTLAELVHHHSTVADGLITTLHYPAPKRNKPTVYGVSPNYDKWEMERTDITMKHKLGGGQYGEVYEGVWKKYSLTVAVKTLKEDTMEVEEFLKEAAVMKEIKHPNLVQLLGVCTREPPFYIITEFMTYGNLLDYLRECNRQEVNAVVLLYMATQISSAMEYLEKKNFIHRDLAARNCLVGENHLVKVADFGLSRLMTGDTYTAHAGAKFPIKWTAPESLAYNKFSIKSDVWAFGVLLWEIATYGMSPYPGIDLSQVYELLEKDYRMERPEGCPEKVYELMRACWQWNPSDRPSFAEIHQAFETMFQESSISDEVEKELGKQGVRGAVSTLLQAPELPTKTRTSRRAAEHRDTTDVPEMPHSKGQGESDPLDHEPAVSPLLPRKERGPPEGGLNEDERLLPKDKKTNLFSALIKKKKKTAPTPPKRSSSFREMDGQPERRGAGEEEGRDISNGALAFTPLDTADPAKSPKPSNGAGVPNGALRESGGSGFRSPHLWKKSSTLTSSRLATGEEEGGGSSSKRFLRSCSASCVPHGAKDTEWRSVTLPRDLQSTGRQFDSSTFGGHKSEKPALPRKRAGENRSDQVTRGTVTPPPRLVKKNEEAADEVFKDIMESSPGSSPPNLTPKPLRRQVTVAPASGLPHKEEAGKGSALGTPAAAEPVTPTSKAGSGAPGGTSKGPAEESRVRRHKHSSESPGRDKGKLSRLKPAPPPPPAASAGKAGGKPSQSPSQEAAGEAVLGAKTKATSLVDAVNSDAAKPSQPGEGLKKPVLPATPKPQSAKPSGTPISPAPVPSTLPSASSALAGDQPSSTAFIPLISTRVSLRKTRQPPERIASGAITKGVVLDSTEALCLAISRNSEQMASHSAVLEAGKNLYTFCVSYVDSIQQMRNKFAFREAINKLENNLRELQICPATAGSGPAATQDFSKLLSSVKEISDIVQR
T1 sequence (P06239 whole entry, species assumed): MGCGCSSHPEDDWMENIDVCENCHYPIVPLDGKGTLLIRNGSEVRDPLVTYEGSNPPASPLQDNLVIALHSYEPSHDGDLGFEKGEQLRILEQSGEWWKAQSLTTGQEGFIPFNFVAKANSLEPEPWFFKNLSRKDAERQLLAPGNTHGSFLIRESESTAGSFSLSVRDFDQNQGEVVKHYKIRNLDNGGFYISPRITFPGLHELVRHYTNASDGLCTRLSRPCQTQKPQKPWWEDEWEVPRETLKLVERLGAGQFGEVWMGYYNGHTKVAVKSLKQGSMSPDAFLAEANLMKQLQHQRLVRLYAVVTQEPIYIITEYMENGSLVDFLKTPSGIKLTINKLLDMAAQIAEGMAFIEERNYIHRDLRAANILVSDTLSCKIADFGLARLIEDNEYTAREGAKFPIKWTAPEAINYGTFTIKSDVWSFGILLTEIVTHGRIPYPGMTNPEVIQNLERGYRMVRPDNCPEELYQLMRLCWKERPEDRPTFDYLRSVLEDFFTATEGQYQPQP

Regarding `Oc1ccc2cc(-c3nc(-c4ccccc4)[nH]c3-c3ccncc3)ccc2c1` [Compound 11, 6-(2-phenyl-5-pyridin-4-yl-1H-imidazol-4-yl)-naphthalen-2-ol], at b-Raf, the IC50 was determined as 300 nM. In addition, the inhibition at 10 µM at Lck is 61%; at c-RAF it was 98%; at SAPK2α it was 74%; on Abl it was 98%.

Take `CN(C)c1ccc(NC(=O)Oc2ccc3cc(-c4nc(-c5ccccc5)[nH]c4-c4ccncc4)ccc3c2)cc1` [Compound 15, (4-dimethylamino-phenyl)-carbamic acid 6-(2-phenyl-5-pyridin-4-yl-1H-imidazol-4-yl)-naphthalen-2-yl ester]: the IC50 at b-Raf worked out at 879 nM.
